Reference: patent publication US9693556B2, “Herbicidal pyridazinone derivatives” (SYNGENTA LIMITED, priority 2011, dated 2017)

Experiments:
Assay type in all cases: in vivo
[1] = system: Alopecurus myosuroides (ALOMY); test: Pre-emergence herbicidal glasshouse test on Alopecurus myosuroides; settings: pre-emergence; 1000 g/h; evaluated after 13 days
Outline: (§1)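 Steps: sow seeds in standard soil; cultivate 1 d (pre-) or 8 d (post-emergence) at 24/16 °C, 14 h light, 65% humidity; spray 1000 g/h in acetone/water plus Tween 20; grow on, watering twice daily; score percentage damage after 13 d.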

Setaria faberi (SETFA) [2] = test: Pre-emergence herbicidal glasshouse test on Setaria faberi; settings: pre-emergence; 1000 g/h; evaluated after 13 days
Outline: as §1

[3] = system: Echinochloa crus-galli (ECHCG); test: Pre-emergence herbicidal glasshouse test on Echinochloa crus-galli; settings: pre-emergence; 1000 g/h; evaluated after 13 days
Outline: as §1

Solanum nigrum (SOLNI) [4] = test: Pre-emergence herbicidal glasshouse test on Solanum nigrum; settings: pre-emergence; 1000 g/h; evaluated after 13 days
Outline: as §1

[5] = system: Amaranthus retoflexus (AMARE); test: Pre-emergence herbicidal glasshouse test on Amaranthus retoflexus; settings: pre-emergence; 1000 g/h; evaluated after 13 days
Outline: as §1

[6] = system: Ipomoea hederacea (IPOHE); test: Pre-emergence herbicidal glasshouse test on Ipomoea hederacea; settings: pre-emergence; 1000 g/h; evaluated after 13 days
Outline: as §1

[7] = system: Alopecurus myosuroides (ALOMY); test: Post-emergence herbicidal glasshouse test on Alopecurus myosuroides; settings: post-emergence; 1000 g/h; evaluated after 13 days
Outline: as §1

Setaria faberi (SETFA) [8] = test: Post-emergence herbicidal glasshouse test on Setaria faberi; settings: post-emergence; 1000 g/h; evaluated after 13 days
Outline: as §1

[9] = system: Echinochloa crus-galli (ECHCG); test: Post-emergence herbicidal glasshouse test on Echinochloa crus-galli; settings: post-emergence; 1000 g/h; evaluated after 13 days
Outline: as §1

Solanum nigrum (SOLNI) [10] = test: Post-emergence herbicidal glasshouse test on Solanum nigrum; settings: post-emergence; 1000 g/h; evaluated after 13 days
Outline: as §1

[11] = system: Amaranthus retoflexus (AMARE); test: Post-emergence herbicidal glasshouse test on Amaranthus retoflexus; settings: post-emergence; 1000 g/h; evaluated after 13 days
Outline: as §1

[12] = system: Ipomoea hederacea (IPOHE); test: Post-emergence herbicidal glasshouse test on Ipomoea hederacea; settings: post-emergence; 1000 g/h; evaluated after 13 days
Outline: as §1

| Structure (SMILES) | PRE Application ALOMY herbicidal damage (five point scale) [1] | PRE Application SETFA herbicidal damage (five point scale) (Setaria faberi (SETFA) [2]) | PRE Application ECHCG herbicidal damage (five point scale) [3] | PRE Application SOLNI herbicidal damage (five point scale) (Solanum nigrum (SOLNI) [4]) | PRE Application AMARE herbicidal damage (five point scale) [5] | PRE Application IPOHE herbicidal damage (five point scale) [6] | POST Application ALOMY herbicidal damage (five point scale) [7] | POST Application SETFA herbicidal damage (five point scale) (Setaria faberi (SETFA) [8]) | POST Application ECHCG herbicidal damage (five point scale) [9] | POST Application SOLNI herbicidal damage (five point scale) (Solanum nigrum (SOLNI) [10]) | POST Application AMARE herbicidal damage (five point scale) [11] | POST Application IPOHE herbicidal damage (five point scale) [12] |
| --- | --- | --- | --- | --- | --- | --- | --- | --- | --- | --- | --- | --- |
| Cn1ncc(-c2ccc(S(C)(=O)=O)c(C3=NOCC3)c2Cl)c(O)c1=O [Compound 1.032] | 5 (5=80-100% damage) | 5 (5=80-100% damage) | 5 (5=80-100% damage) | 5 (5=80-100% damage) | 5 (5=80-100% damage) | 4 (4=60-79% damage) | 5 (5=80-100% damage) | 5 (5=80-100% damage) | 5 (5=80-100% damage) | 5 (5=80-100% damage) | 5 (5=80-100% damage) | 5 (5=80-100% damage) |
| Cn1ncc(-c2ccc(C(F)(F)F)cc2C(F)(F)F)c(O)c1=O [Compound 1.033] | 1 (1=0-19% damage) | 1 (1=0-19% damage) | 2 (2=20-39% damage) | 5 (5=80-100% damage) | 5 (5=80-100% damage) | 1 (1=0-19% damage) | 2 (2=20-39% damage) | 1 (1=0-19% damage) | 2 (2=20-39% damage) | 5 (5=80-100% damage) | 5 (5=80-100% damage) | 5 (5=80-100% damage) |
| COCCOc1c(S(C)(=O)=O)ccc(-c2cnn(C)c(=O)c2O)c1Cl [Compound 1.034] | 2 (2=20-39% damage) | 5 (5=80-100% damage) | 5 (5=80-100% damage) | 5 (5=80-100% damage) | 5 (5=80-100% damage) | 3 (3=40-59% damage) | 4 (4=60-79% damage) | 5 (5=80-100% damage) | 5 (5=80-100% damage) | 5 (5=80-100% damage) | 5 (5=80-100% damage) | 5 (5=80-100% damage) |
| Cc1c(-c2cnn(C)c(=O)c2O)ccc2c1C(=O)N(C)S2(=O)=O [Compound 1.035] | 1 (1=0-19% damage) | 1 (1=0-19% damage) | 5 (5=80-100% damage) | 3 (3=40-59% damage) | 5 (5=80-100% damage) | 4 (4=60-79% damage) | 2 (2=20-39% damage) | 1 (1=0-19% damage) | 5 (5=80-100% damage) | 5 (5=80-100% damage) | 5 (5=80-100% damage) | 5 (5=80-100% damage) |
| Cn1ncc(-c2ccccc2[S+](C)[O-])c(O)c1=O (stereo not drawn) [Compound 1.036] | 3 (3=40-59% damage) | 2 (2=20-39% damage) | 2 (2=20-39% damage) | 1 (1=0-19% damage) | 3 (3=40-59% damage) | 1 (1=0-19% damage) | 5 (5=80-100% damage) | 5 (5=80-100% damage) | 5 (5=80-100% damage) | 5 (5=80-100% damage) | 5 (5=80-100% damage) | 5 (5=80-100% damage) |
| Cn1ncc(-n2ccc(C(F)(F)F)c(-c3cccc(Cl)c3)c2=O)c(O)c1=O [Compound 1.037] | 4 (4=60-79% damage) | 4 (4=60-79% damage) | 5 (5=80-100% damage) | 5 (5=80-100% damage) | 5 (5=80-100% damage) | 1 (1=0-19% damage) | 4 (4=60-79% damage) | 4 (4=60-79% damage) | 4 (4=60-79% damage) | 5 (5=80-100% damage) | 5 (5=80-100% damage) | 4 (4=60-79% damage) |
| Cc1cccc(-c2c(C(F)(F)F)ccn(-c3cnn(C)c(=O)c3O)c2=O)c1 [Compound 1.038, 4-hydroxy-2-methyl-5-[3-(m-tolyl)-2-oxo-4-(trifluoromethyl)-1-pyridyl]pyridazin-3-one] | 3 (3=40-59% damage) | 3 (3=40-59% damage) | 5 (5=80-100% damage) | 5 (5=80-100% damage) | 5 (5=80-100% damage) | 1 (1=0-19% damage) | 4 (4=60-79% damage) | 5 (5=80-100% damage) | 4 (4=60-79% damage) | 5 (5=80-100% damage) | 5 (5=80-100% damage) | 4 (4=60-79% damage) |
| Cn1ncc(-c2cc3cccnc3nc2C(F)(F)F)c(O)c1=O [Compound 1.039] | 2 (2=20-39% damage) | 3 (3=40-59% damage) | 5 (5=80-100% damage) | 4 (4=60-79% damage) | 5 (5=80-100% damage) | 5 (5=80-100% damage) | 4 (4=60-79% damage) | 5 (5=80-100% damage) | 5 (5=80-100% damage) | 5 (5=80-100% damage) | 5 (5=80-100% damage) | 5 (5=80-100% damage) |
